Assay results reported in patent US20070238742A1, “METHODS OF PREPARATION AND RESOLUTION OF E/Z ISOMERS OF VINYLFURO[2,3-D]PYRIMIDINE AND THEIR BIOLOGICAL ACTIVITIES AND RELATED COMPOSITIONS AND METHODS OF TREATMENT” (priority 2006, published 2007).

Test system: chick aorta
Assay: aortic ring assay: chick aorta pieces in culture with angiogenic agents
Format: cell-based
Details: for resumption of angiogenesis / regrowth of capillary-like structures on removal: after removal of the agent, relative to tissue not treated with antiangiogenic agents (control); for inhibition of angiogenesis compared with the E/Z mixture: E-isomer vs E/Z mixture 5
Description: Biological activity in angiogenic assays were chosen as a way to compare anti-angiogenic activity, potency an reversibility of inhibition. The studies were conducted on pieces of chick aorta placed in culture with a mixture of angiogenic agents and various compounds.
Unresolved mixture of E/Z-isomers 5 and isolated E-isomer 1 from the series of compounds under study were assessed for desirable biological activities, i.e., antiangiogenic activity and persistence of inhibitory activity. It is well known that binding vascular endothelial growth factor with antibodies or aptamers or inhibiting VEGF signaling with small molecules reduces and even reverses angiogenesis. However, angiogenesis rapidly resumes once the agent is removed (Mancuso et al., J. Clin. Invest., 116:610-21, 2006; Baffert et al., Am. J. Physiol. Heart, 290:H509-11, 2006). In the case of tumors, rapid regrowth of new vessels contributes to the regrowth and survival of the tumor.

Nc1nc(N)c2c(/C=C/c3ccc4ccccc4c3)coc2n1 (single isomer, unassigned; isomer 1) [E-isomer 1, 5-E-(2-naphthalen-2-yl-vinyl)-furo[2,3-d]pyrimidine-2,4-diamine]
resumption of angiogenesis / regrowth of capillary-like structures on removal: 31%
inhibition of angiogenesis compared with the E/Z mixture (comparison in words): comparable inhibition of angiogenesis
inhibition of angiogenesis compared with the E/Z mixture (comparison in words, listed as E-isomer): greater inhibition on a molar basis
resumption of angiogenesis compared with the E/Z parent compound (comparison in words, after removal): less resumption of angiogenesis

Nc1nc(N)c2c(C=Cc3ccc4ccccc4c3)coc2n1 [E/Z mixture 5, 5-Z/E-(2-naphthalen-2-yl-vinyl)-furo[2,3-d]pyrimidine-2,4-diamine]
resumption of angiogenesis / regrowth of capillary-like structures on removal: ~72%
inhibition of capillary outgrowth (aortic ring assay, compound present): 84%
